Results taken from patent US20160304552A1, “MODIFIED NUCLEIC ACID MOLECULES AND USES THEREOF” (MODERNA THERAPEUTICS, INC., priority 2013, published 2016).

Biological target: T7 RNA polymerase (Escherichia phage T7, UniProt P00573)
Test: In vitro transcription yields of modified mRNA
Assay type: biochemical
Settings: for EPO In Vitro Transcription yield: EPO mRNA made with the modified NTP(s); for GCSF In Vitro Transcription yield: GCSF mRNA made with the modified NTP(s); for Luc In Vitro Transcription yield: Luciferase mRNA made with the modified NTP(s)
Method: The in vitro transcription reaction generates mRNA containing modified nucleotides or modified RNA. The input nucleotide triphosphate (NTP) mix is made in-house using natural and unnatural NTPs.
A typical in vitro transcription reaction includes the following:
Incubation at 37° C. for 3 hr-5 hrs.
The crude IVT mix may be stored at 4° C. overnight for cleanup the next day. 1 U of RNase-free DNase is then used to digest the original template. After 15 minutes of incubation at 37° C., the mRNA is purified using Ambion's […]™ Kit (Austin, Tex.) following the manufacturer's instructions. This kit can purify up to 500 μg of RNA. Following the cleanup, the RNA is quantified using the NanoDrop and analyzed by agarose gel electrophoresis to confirm the RNA is the proper size and that no degradation of the RNA has occurred.
Modified mRNAs in TE buffer (1 μl) are used for Nanodrop UV absorbance readings to quantitate the yield of each modified mRNA from an in vitro transcription reaction (UV absorbance traces are not shown).

Chain of T7 RNA polymerase (P00573 whole entry): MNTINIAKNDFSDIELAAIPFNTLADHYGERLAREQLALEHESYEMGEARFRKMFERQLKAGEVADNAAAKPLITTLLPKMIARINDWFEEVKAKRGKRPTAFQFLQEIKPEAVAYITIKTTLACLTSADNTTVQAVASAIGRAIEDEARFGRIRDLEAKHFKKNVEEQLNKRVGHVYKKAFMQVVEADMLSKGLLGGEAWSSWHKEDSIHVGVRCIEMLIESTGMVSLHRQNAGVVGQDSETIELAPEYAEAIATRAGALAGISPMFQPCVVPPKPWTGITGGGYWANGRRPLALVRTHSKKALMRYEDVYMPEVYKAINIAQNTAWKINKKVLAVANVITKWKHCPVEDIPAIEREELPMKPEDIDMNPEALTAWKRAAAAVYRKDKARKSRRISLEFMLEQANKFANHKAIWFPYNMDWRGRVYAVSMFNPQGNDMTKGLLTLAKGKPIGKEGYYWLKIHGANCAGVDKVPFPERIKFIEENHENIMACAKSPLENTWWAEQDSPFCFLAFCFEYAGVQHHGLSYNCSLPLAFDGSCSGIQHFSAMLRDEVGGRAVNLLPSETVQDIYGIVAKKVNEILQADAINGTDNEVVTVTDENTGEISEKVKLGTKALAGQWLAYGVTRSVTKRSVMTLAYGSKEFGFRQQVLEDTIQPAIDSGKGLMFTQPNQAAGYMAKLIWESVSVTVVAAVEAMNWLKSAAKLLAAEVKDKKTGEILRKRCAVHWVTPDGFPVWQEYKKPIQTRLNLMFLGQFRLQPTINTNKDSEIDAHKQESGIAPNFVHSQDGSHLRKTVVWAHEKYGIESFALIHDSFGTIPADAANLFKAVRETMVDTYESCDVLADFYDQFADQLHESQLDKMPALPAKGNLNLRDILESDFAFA

With Nc1ncnc2c1nnn2[C@@H]1O[C@H](COP(=O)(O)OP(=O)(O)OP(=O)(O)O)C(O)C1O (stereo partly drawn) [00901011003 (377), 8-Aza-ATP] the “EPO In Vitro Transcription yield” value was 0.0055 mg, the “GCSF In Vitro Transcription yield” value was 0.03 mg and the “Luc In Vitro Transcription yield” value was 0.0262 mg.

O=c1[nH]c(=O)n([C@@H]2O[C@H](COP(=O)(O)OP(=O)(O)OP(=O)(O)O)C(O)C2O)cc1C(F)(F)F (stereo partly drawn) [00901013002 (352), 5-Trifluoromethyl-UTP] was tested, and the “EPO In Vitro Transcription yield” value was 0.3830 mg, the “GCSF In Vitro Transcription yield” value was 0.5102 mg and the “Luc In Vitro Transcription yield” value was 0.3662 mg.

For CNCc1cn([C@@H]2O[C@H](COP(=O)(O)OP(=O)(O)OP(=O)(O)O)C(O)C2O)c(=O)[nH]c1=O (stereo partly drawn) [00901013006 (353), 5-Methylamino methyl-UTP], the “EPO In Vitro Transcription yield” value was 0.3060 mg, the “GCSF In Vitro Transcription yield” value was 0.3494 mg and the “Luc In Vitro Transcription yield” value was 0.2914 mg.

O=c1[nH]c(=S)ccn1[C@@H]1O[C@H](COP(=O)(O)OP(=O)(O)OP(=O)(O)O)C(O)C1O (stereo partly drawn) [00901013011 (2), 4-Thio-UTP] was tested, and the “EPO In Vitro Transcription yield” value was 0.0416 mg, the “GCSF In Vitro Transcription yield” value was 0.0759 mg and the “Luc In Vitro Transcription yield” value was 0.1625 mg.

In the case of Cn1c(=O)[nH]cc([C@@H]2O[C@H](COP(=O)(O)OP(=O)(O)OP(=O)(O)O)C(O)C2O)c1=O (stereo partly drawn) [00901015187 (236), 3-Methyl-pseudo-UTP], the “EPO In Vitro Transcription yield” value is reported as 0.0125 mg, the “GCSF In Vitro Transcription yield” value is reported as 0.0120 mg and the “Luc In Vitro Transcription yield” value is reported as 0.0152 mg.

With Nc1nc(N)c2ncn([C@@H]3O[C@H](COP(=O)(O)OP(=O)(O)OP(=O)(O)O)C(O)C3O)c2n1 (stereo partly drawn) [03601011002 (154), 2-Amino-ATP] the “EPO In Vitro Transcription yield” value was 0.2612 mg, the “GCSF In Vitro Transcription yield” value was 0.1567 mg and the “Luc In Vitro Transcription yield” value was 0.1215 mg.

For O=c1[nH]c(=O)n(CC(F)(F)F)cc1[C@@H]1O[C@H](COP(=O)(O)OP(=O)(O)OP(=O)(O)O)C(O)C1O (stereo partly drawn) [03601015005 (175), 1-(2,2,2-Trifluoroethyl) pseudo-UTP], the “EPO In Vitro Transcription yield” value was 0.3379 mg, the “GCSF In Vitro Transcription yield” value was 0.2332 mg and the “Luc In Vitro Transcription yield” value was 0.4388 mg.

Cn1c(N)nc2c(ncn2[C@@H]2O[C@H](COP(=O)(O)OP(=O)(O)OP(=O)(O)O)C(O)C2O)c1=O (stereo partly drawn) [Compound 00901012008, N1-Me-GTP] was tested, and the “EPO In Vitro Transcription yield” value was 0.0032 mg, the “GCSF In Vitro Transcription yield” value was 0.0050 mg and the “Luc In Vitro Transcription yield” value was 0.0059 mg.

Cn1c(=N)ccn([C@@H]2O[C@H](COP(=O)(O)OP(=O)(O)OP(=O)(O)O)C(O)C2O)c1=O (stereo partly drawn) [Compound 00901014006, 3-Methyl-CTP] was tested, and the “EPO In Vitro Transcription yield” value was 0.0060 mg, the “GCSF In Vitro Transcription yield” value was 0.0141 mg and the “Luc In Vitro Transcription yield” value was 0.0068 mg.

In the case of Nc1ccn([C@@H]2O[C@H](COP(=O)(O)OP(=O)(O)OP(=O)(O)O)C(O)C2O)c(=S)n1 (stereo partly drawn) [Compound 00901014010, 2-Thio-CTP], the “EPO In Vitro Transcription yield” value is reported as 0.0061 mg, the “GCSF In Vitro Transcription yield” value is reported as 0.0076 mg and the “Luc In Vitro Transcription yield” value is reported as 0.0073 mg.
